These results are taken from ChEMBL document CHEMBL4680312 (Bioorg Med Chem, 2021).

Active and inactive are the calls of the source. The calls are words filed in the database; no cut-off is given here.

One may read the Ki as the dissociation constant of the complex between target and ligand, obtained from inhibition or displacement.

Type in all cases: cell-based
For assay [1], the target named is T1, Histamine H4 receptor (Homo sapiens, UniProt Q9H3N8). Kind of assay: Displacement of [3H]-Histamine from human histamine 4 receptor transfected in HEK293T cells incubated for 16 hrs by liquid scintillation counter analysis. A general note: In a radioligand displacement assay an active substance lowers the binding of a labelled ligand.
T1 sequence (Q9H3N8 whole entry): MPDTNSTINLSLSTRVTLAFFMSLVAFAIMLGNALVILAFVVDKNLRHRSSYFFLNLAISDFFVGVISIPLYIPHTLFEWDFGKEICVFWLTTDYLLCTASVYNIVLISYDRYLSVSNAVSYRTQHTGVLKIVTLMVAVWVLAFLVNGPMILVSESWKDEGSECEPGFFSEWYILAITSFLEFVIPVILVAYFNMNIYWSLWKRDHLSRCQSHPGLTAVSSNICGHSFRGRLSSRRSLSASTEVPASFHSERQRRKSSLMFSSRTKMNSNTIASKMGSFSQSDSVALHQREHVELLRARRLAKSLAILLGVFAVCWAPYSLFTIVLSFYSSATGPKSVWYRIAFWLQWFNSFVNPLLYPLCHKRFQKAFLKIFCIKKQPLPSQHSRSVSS
For assay [2], the target named is T2, Histamine H3 receptor (Homo sapiens, UniProt Q9Y5N1). Kind of assay: Displacement of [3H]-Histamine from human histamine 3 receptor transfected in HEK293T cells incubated for 16 hrs by liquid scintillation counter analysis.
T2 sequence (Q9Y5N1 whole entry): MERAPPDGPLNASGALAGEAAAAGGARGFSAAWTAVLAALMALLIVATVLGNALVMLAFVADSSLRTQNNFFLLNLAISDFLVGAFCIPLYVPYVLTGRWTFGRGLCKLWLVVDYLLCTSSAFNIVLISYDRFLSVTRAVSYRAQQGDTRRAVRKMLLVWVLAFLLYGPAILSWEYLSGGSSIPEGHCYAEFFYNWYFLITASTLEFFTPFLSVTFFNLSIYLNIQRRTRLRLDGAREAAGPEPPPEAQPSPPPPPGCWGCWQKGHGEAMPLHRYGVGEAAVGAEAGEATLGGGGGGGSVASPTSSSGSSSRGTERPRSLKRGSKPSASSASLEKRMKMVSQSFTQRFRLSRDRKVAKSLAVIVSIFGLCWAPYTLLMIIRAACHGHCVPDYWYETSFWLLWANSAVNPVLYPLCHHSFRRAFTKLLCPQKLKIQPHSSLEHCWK
For assay [3], the target named is T2, Histamine H3 receptor. Kind of assay: Activation of human histamine 3 receptor transfected in human HEK293T cells at 10 uM measured after 5 mins by BRET assay. A general note: In BRET a luciferase serves as donor, and the signal depends on an acceptor being close.
Assay [4] has as its target T2, Histamine H3 receptor. Kind of assay: Antagonist activity at human histamine 3 receptor transfected in human HEK293T cells assessed as reduction in histamine-induced activity at 10 uM incubated for 30 mins followed by histamine stimulation and measured immediately by BRET assay.
The target of assay [5] is T1, Histamine H4 receptor. Briefly: Antagonist activity at human histamine 4 receptor transfected in human HEK293T cells assessed as reduction in histamine-induced activity at 10 uM incubated for 30 mins followed by histamine stimulation and measured immediately by BRET assay. Particulars: filed as antagonist.
Assay [6] concerns the target T1, Histamine H4 receptor. Kind of assay: Activation of human histamine 4 receptor transfected in human HEK293T cells measured after 5 mins by BRET assay. The conditions noted are these: filed as partial agonist, dose 0.01-10 µM.

For `C=CCN1CCN(CC2Cc3cc(C(C)(C)C)ccc3O2)CC1` (stereo unspecified), the inhibition constant (Ki) was over 10 µM on Histamine H4 receptor [1] and 0.0158 µM at Histamine H3 receptor [2]. Moreover, at Histamine H3 receptor [3], the result was inactive. For the same compound, the outcome on Histamine H3 receptor [4] (filed as antagonist) was Active.

As for `CN1CCN(CC2Cc3cc(-c4ccccc4)ccc3O2)CC1` (stereo unspecified), the inhibition constant (Ki) at Histamine H4 receptor [1] was over 10 µM; at Histamine H3 receptor [2], 0.0398 µM. Moreover, the outcome on Histamine H3 receptor [3] was inactive. Further, the result at Histamine H3 receptor [4] (filed as antagonist) was Active.

`O=C(c1cc2ccccc2o1)N1CCN(c2ccccc2)CC1`: the inhibitory constant (Ki) on Histamine H4 receptor [1] and at Histamine H3 receptor [2] was over 10 µM throughout.

Consider `CN1CCN(CC2Cc3cc(Cl)ccc3O2)CC1` (stereo unspecified), for which the Ki at Histamine H4 receptor [1] and at Histamine H3 receptor [2] was 0.794 µM each time.

Take `c1ccc(-c2ccc3c(c2)CC(CN2CCNCC2)O3)cc1` (stereo unspecified): the results for the inhibitory constant (Ki) at Histamine H4 receptor [1] and on Histamine H3 receptor [2] were over 10 µM and 0.631 µM, respectively. In addition, the result on Histamine H3 receptor [3] and on Histamine H3 receptor [4] was inactive.

With `COc1ccc2c(c1)CC(CN1CCN(C)CC1)O2` (stereo unspecified), the inhibitory constant (Ki) at Histamine H4 receptor [1] was over 10 µM; on Histamine H3 receptor [2], 0.794 µM.

Regarding `C=CCN1CCN(CC2Cc3ccccc3O2)CC1` (stereo unspecified), the Ki at Histamine H4 receptor [1] is over 10 µM.

Consider `CN1CCN(C(=O)c2nc3ccc(Cl)cc3[nH]2)CC1`, for which, on Histamine H4 receptor [5], the outcome was Active.

Take `C=CCN1CCN(CC2Cc3cc(-c4ccccc4)ccc3O2)CC1` (stereo unspecified): the Ki was over 10 µM at Histamine H4 receptor [1] and 0.00398 µM on Histamine H3 receptor [2]. The outcome on Histamine H3 receptor [3] was inactive. In addition, at Histamine H3 receptor [4] (filed as antagonist), the outcome was Active.

On to `c1ccc(CN2CCN(CC3Cc4ccccc4O3)CC2)cc1` (stereo unspecified), for which the inhibition constant Ki on Histamine H4 receptor [1] and at Histamine H3 receptor [2] was over 10 µM each time.

On to `c1ccc(-c2ccc3c(c2)CC(CN2CCN(c4ccccc4)CC2)O3)cc1` (stereo unspecified), for which the Ki on Histamine H4 receptor [1] and at Histamine H3 receptor [2] was over 10 µM throughout.

Take `CN1CCN(Cc2ccc3c(c2)CCO3)CC1`: the Ki at Histamine H4 receptor [1] and at Histamine H3 receptor [2] was over 10 µM throughout.

With `CN1CCN(C(=O)c2cc3ccccc3o2)CC1`, the Ki on Histamine H4 receptor [1] was 0.0794 µM; at Histamine H3 receptor [2] it was over 10 µM. On Histamine H4 receptor [6], the Activity entry is “Dose-dependent effect”. Also, the outcome at Histamine H4 receptor [5] was Active.

As to `CC(C)(C)c1ccc2c(c1)CC(CN1CCN(c3ccccc3)CC1)O2` (stereo unspecified), the Ki at Histamine H4 receptor [1] and at Histamine H3 receptor [2] was over 10 µM throughout. Also, the result at Histamine H3 receptor [3] and on Histamine H3 receptor [4] was inactive.

As to `CN1CCN(Cc2cc3ccccc3o2)CC1`, the Ki on Histamine H4 receptor [1] and on Histamine H3 receptor [2] was over 10 µM each time.

With `CN1CCN(CC2Cc3cc(C(C)(C)C)ccc3O2)CC1` (stereo unspecified), the figures for the Ki at Histamine H4 receptor [1] and at Histamine H3 receptor [2] were over 10 µM and 0.794 µM, respectively.

As for `C=CCN1CCN(CC2Cc3cc(OC)ccc3O2)CC1` (stereo unspecified), the results for the Ki at Histamine H4 receptor [1] and on Histamine H3 receptor [2] were over 10 µM and 0.00631 µM, respectively. Besides, the outcome on Histamine H3 receptor [3] was inactive. In addition, the outcome at Histamine H3 receptor [4] (filed as antagonist) was Active.
